The source of these data is patent US8088788B2, “Substituted fused[1,2] imidazo[4,5-c] ring compounds and methods” (3M Innovative Properties Company, priority 2006, dated 2012).

As a reminder, the melting point is the temperature, or range, at which the solid turns liquid. Turning to `Nc1nc2ccccc2c2c1nc1n2CCCN1` [Example 5, 8,9,10,11-Tetrahydropyrimido[1′,2′:1,2]imidazo[4,5-c]quinolin-6-amine], the melting point was over 250 °C.
To `Nc1nc2cc(Br)ccc2c2c1nc1n2CCCO1` [Example 7, 3-Bromo-10,11-dihydro-9H-[1,3]oxazino[3′,2′:1,2]imidazo[4,5-c]quinolin-6-amine] belongs 273 to 276 °C.
The molecule `CC1CCc2nc3c(N)nc4ccccc4c3n2N1` (stereo not drawn) [Example 24, 10-Methyl-8,9,10,11-tetrahydropyridazino[1′,6′:1,2]imidazo[4,5-c]quinolin-6-amine] registered a melting point of 241 to 243 °C.
With `Cc1ccc(S(=O)(=O)n2ccc3nc4c(N)nc5ccccc5c4n32)cc1` [Example 25, 10-[(4-Methylphenyl)sulfonyl]-10H-pyrazolo[1′,5′:1,2]imidazo[4,5-c]quinolin-6-amine], the melting point lay in the range of 204 to 206 °C.
The molecule `C[C@H]1CNc2nc3c(N)nc4ccccc4c3n21` [Example 27, (10S)-10-Methyl-9,10-dihydro-8H-imidazo[1′,2′:1,2]imidazo[4,5-c]quinolin-6-amine] had a melting point of 265 to 273 °C.
Regarding `C[C@@H]1CNc2nc3c(N)nc4ccccc4c3n21` [Example 28, (10R)-10-Methyl-9,10-dihydro-8H-imidazo[1′,2′:1,2]imidazo[4,5-c]quinolin-6-amine], the melting point is 272 to 274 °C.
